Test results: ChEMBL document CHEMBL5385863, “Targeting the phosphoserine phosphatase MtSerB2 for tuberculosis drug discovery, an hybrid knowledge based /fragment based approach” (Eur J Med Chem, 2023)
Activity calls are given as the source filed them. The rule behind the calls is not given here.

Columns and labels:
[1] = molecular target: Phosphoserine phosphatase SerB2 (Mycobacterium tuberculosis) (UniProt O53289); assay: Binding affinity to Mycobacterium tuberculosis SerB2 expressed in Escherichia coli BL21 (DE3) cells assessed as protein destabilization at 4 mM by differential scanning fluorimetry
[2] = molecular target: Phosphoserine phosphatase SerB2 (Mycobacterium tuberculosis) (UniProt O53289); assay: Binding affinity to Mycobacterium tuberculosis SerB2 expressed in Escherichia coli BL21 (DE3) cells assessed as change in melting temperature at 4 mM by differential scanning fluorimetry
[3] = molecular target: Phosphoserine phosphatase SerB2 (Mycobacterium tuberculosis) (UniProt O53289); assay: Inhibition of Mycobacterium tuberculosis SerB2 expressed in Escherichia coli BL21 at 1 mM incubated for 10 mins by malachite green dye based phosphatase assay relative to control
[4] = molecular target: Phosphoserine phosphatase SerB2 (Mycobacterium tuberculosis) (UniProt O53289); assay: Inhibition of Mycobacterium tuberculosis SerB2 expressed in Escherichia coli BL21 at 1 mM incubated for 10 mins by malachite green dye based phosphatase assay

Sequence of Phosphoserine phosphatase SerB2 (Mycobacterium tuberculosis) (O53289 whole entry): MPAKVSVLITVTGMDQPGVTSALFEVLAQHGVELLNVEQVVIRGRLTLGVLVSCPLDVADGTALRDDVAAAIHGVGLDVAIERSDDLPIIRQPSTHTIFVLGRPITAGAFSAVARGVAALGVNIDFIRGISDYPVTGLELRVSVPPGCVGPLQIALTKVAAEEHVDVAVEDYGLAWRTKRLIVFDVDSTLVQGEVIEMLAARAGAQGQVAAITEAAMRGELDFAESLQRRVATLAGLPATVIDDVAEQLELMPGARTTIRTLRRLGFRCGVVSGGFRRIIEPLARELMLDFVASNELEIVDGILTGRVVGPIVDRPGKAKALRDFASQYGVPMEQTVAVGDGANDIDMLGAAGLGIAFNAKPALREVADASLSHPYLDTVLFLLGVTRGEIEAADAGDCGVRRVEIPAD

## N[C@@H](CCS(=O)(=O)O)C(=O)O
[1]
  Activity: Active
[2]
  ΔTm: > 0.5 °C

## Cc1cc(C2CCCCC2)n(O)c(=O)c1
[1]
  Activity: Active
[2]
  ΔTm: > 0.5 °C

## O=P(O)(O)C(O)(Cn1ccnc1)P(=O)(O)O
[1]
  Activity: Active
[3]
  inhibition: > 50%
[2]
  ΔTm: > 0.5 °C

## O=C(O)c1cc(O)ccn1
[1]
  Activity: Active
[3]
  inhibition: > 50%
[2]
  ΔTm: > 0.5 °C

## O=C(NO)Nc1ccc(Cl)cc1Cl
[1]
  Activity: Active
[3]
  inhibition: > 50%
[2]
  ΔTm: > 0.5 °C

## Nc1ccc(C(=O)O)c(O)c1
[4]
  inhibition: Active

## c1c[nH]cn1
[4]
  inhibition: Active

## c1ccc(-c2c[nH]cn2)cc1
[1]
  Activity: Active
[2]
  ΔTm: > 0.5 °C

## Nc1ccncc1
[1]
  Activity: Active
[2]
  ΔTm: > 0.5 °C

## Nc1ccc(O)cc1
[1]
  Activity: inactive
[3]
  inhibition: > 50%
[2]
  ΔTm: > 0.5 °C

## NCCCP(=O)(O)O
[4]
  inhibition: Active

## CCC(N)P(=O)(O)O (configuration not stated)
[4]
  inhibition: Active

## NC(=O)NO
[1]
  Activity: Active
[4]
  inhibition: Active
[2]
  ΔTm: > 0.5 °C
